In patent publication US20190387748A1, “COMPOSITIONS AND RELATED METHODS FOR AGRICULTURE” (priority 2017, published 2019):
Entries after “also recorded” stand apart in the source; their conditions may differ.

Assays:
Buchnera = assay: qPCR of Buchnera/aphid DNA copy numbers (symbiont titer); assay type: in vivo, Buchnera aphidicola; conditions: 10 or 100 uM pantothenol, through plants; 8 days
Procedure: (§1) After 7 days of treatment, DNA was extracted from multiple aphids from each treatment group. Briefly, the aphid body surface was sterilized by dipping the aphid into a 6% bleach solution for approximately 5 seconds. Aphids were then rinsed in sterile water and DNA was extracted from each individual aphid using a DNA extraction kit (Qiagen, DNeasy kit) according to manufacturer's instructions. DNA concentration was measured using a nanodrop nucleic acid quantification, and Buchnera and aphid DNA copy numbers were measured by qPCR.
After 6 days of treatment, DNA was extracted from multiple aphids from each treatment group and qPCR for quantifying Buchnera levels was done as described in the previous Example.
as §1, with “8” for “7”
as §1, with “After 8” for “After 7”, “from the remaining” for “from multiple”, “aphids in” for “aphids from”
as §1, with “Briefly,” for “After 7 days of treatment, DNA was extracted from multiple aphids from each treatment group. Briefly,”
as §1, with “Briefly,” for “After 7 days of treatment, DNA was extracted from multiple aphids from each treatment group. Briefly,”
as §1, with “3” for “7”, “the remaining living” for “multiple”
as §1, with “After 5” for “After 7”, “from the remaining” for “from multiple”, “aphids in” for “aphids from”
At 5 days post-treatment, DNA was extracted from several aphids in each treatment group. Briefly, the aphid body surface was sterilized by dipping the aphid into a 6% bleach solution for approximately 5 seconds.

[1] = tested on: Acyrthosiphon pisum aphids; assay: Aphid developmental stage monitoring; assay type: in vivo
Procedure: (§2) In addition, the developmental stage (1st, 2nd, 3rd, 4th, 5th instar) was determined daily throughout the experiment. Once an aphid reached the 4th instar stage, they were given their own artificial feeding system in a deep petri dish so that fecundity could be monitored once they reached adulthood.
Each treatment group received approximately the same number of individuals from each of the collection plant. For each treatment, 20 aphids were placed onto each leaf. Aphids were monitored daily for survival and dead aphids were removed when they were discovered. In addition, the developmental stage (1st, 2nd, 3rd, 4th, 5th instar, and 5R, representing a reproducing 5th instar) was determined daily throughout the experiment. Pictures of aphids were taken throughout the experiment to evaluate size differences between treatment groups.
(Vroma vicia faba from Johnny's Selected Seeds) in a climate-controlled incubator (16 h light/8 h dark photoperiod; 60±5% RH; 25±2° C.). Prior to being used for aphid rearing, fava bean plants were grown in potting soil at 24° C. with 16 h of light and 8 h of darkness. To limit maternal effects or health differences between plants, 5-10 adults from different plants were distributed among 10 two-week-old plants, and allowed to multiply to high density for 5-7 days. […] Aphids were monitored daily for survival and dead aphids were removed from the deep petri dish when they were discovered. In addition, the developmental stage (1st, 2nd, 3rd, 4th, 5th and 5R (5th that has reproduced) instar) was determined daily throughout the experiment.
In addition, the developmental stage (1st, 2nd, 3rd, 4th, 5th, and 5R (5th that has reproduced) instar) was determined daily throughout the experiment.
In addition, the developmental stage (1st, 2nd, 3rd, 4th, 5th, and 5R (5th instar aphids that are reproducing) instar) was determined daily throughout the experiment.
In addition, the developmental stage (1st, 2nd, 3rd, 4th, and 5th instar) was determined daily throughout the experiment.
as §2, with “5th, and 5R (5th that has reproduced)” for “5th”
For each treatment, 30 aphids were placed onto each leaf in triplicate. […] Aphids were monitored daily for survival and dead aphids were removed from the deep petri dish when they were discovered. In addition, the developmental stage (1st, 2nd, 3rd, 4th, 5th, and 5R (5th instar aphids that are reproducing) instar) was determined daily throughout the experiment. […]

## CC(C)(CO)[C@@H](O)C(=O)NCCCO [pantothenol]
Buchnera
  Buchnera/aphid DNA copies: did not affect endosymbiotic Buchnera; also recorded: high ratios of Buchnera/aphid DNA copies
[1]; eNASCO 1st and 2nd instar, 10 or 100 uM pantothenol in artificial diet without essential amino acids, through plants
  Aphid development: delayed aphid development; also recorded: Development was delayed
[1]; eNASCO first instar, leaf coating, 100 μl of 10 uM pantothenol in 0.025% Silwet L-77
  Aphid development: did not affect aphid development; also recorded: matured at similar rates up to two days post-treatment
